Experiments:
Claviceps purpurea = experiment: Field test plot 2017, Canada: foliar application, assessment of sclerotia (ergot bodies) in spring wheat CTC Utmost; assay type: in vivo; settings: EC 150 g/l, 1.333 L/HA, 200 g/ha, applied BBCH 59-61, 96 days post application
Experimental: (§1) In Canada, in 2017, a test plot was conducted with the spring wheat variety CTC Utmost. Fluopyram as well as market standards were applied according to table 1 on July 7th between BBCH stage59 and 61 (. Assessment of sclerotia was done in fall 2017 96 days post application.

[1] = system: spring wheat variety CTC Utmost; experiment: Field test plot 2017, Canada: yield of spring wheat treated against Claviceps purpurea; assay type: in vivo; settings: EC 150 g/l, 1.333 L/HA, 200 g/ha, untreated = 100
Experimental: as §1

O=C(NCCc1ncc(C(F)(F)F)cc1Cl)c1ccccc1C(F)(F)F [Fluopyram, N-{[3-chloro-5-(trifluoromethyl)-2-pyridinyl]ethyl}-2-trifluoromethylbenzamide]
Number of Ergot bodies per kg seed (Claviceps purpurea): 5 per kg seed
% yield compared to Untreated [1]: 109.85%

From US20220039383A1, “Use of the Succinate Dehydrogenase Inhibitor Fluopyram for Controlling Claviceps Purpurea and Reducing Sclerotia in Cereals” (Bayer Aktiengesellschaft, priority 2018, published 2022)
